Laboratory results reported in patent publication US12281149B2, “Modulators of G-protein coupled receptors” (priority 2021, dated 2025).
Where two headings read alike, the source gives them in different places. *1 amine or outer side, *2 acyl side, *3 side chain or, on linkers, in order; H or OH if unused. Where a SMILES comes first, the peptide text is derived from it. Side-chain parts run from the residue outwards. [ ]: non-standard residue; d: D form. The star is where a group is joined. C20 diacid = O=C(O)CCCCCCCCCCCCCCCCCCC(=O)*; γGlu = O=C(O)[C@H](CCC(=O)[*:2])N[*:1]; X60 = O=C(C1(c2cccnc2)CCCC1)*; X83 = Cc1ccn(C(C)(C)C(=O)*)n1; NH(3-MeOPh) = COc1cccc(N*)c1; AEEA = NCCOCCOCC(=O)O; Aib = CC(C)(N)C(=O)O; CO = O=C([*:1])[*:2]; X12 = Fc1cccc(N*)c1; X67 = Cc1cccc(N*)c1; GABA = NCCCC(=O)O; βAla = NCCC(=O)O

Key:
GLP-1 receptor = GLP-1 receptor (Homo sapiens, UniProt P43220); test: HitHunter cAMP assay, GLP-1 receptor; type: cell-based; conditions: read-out: Emax GLP-1R
Sequence of GLP-1 receptor (P43220 24-463): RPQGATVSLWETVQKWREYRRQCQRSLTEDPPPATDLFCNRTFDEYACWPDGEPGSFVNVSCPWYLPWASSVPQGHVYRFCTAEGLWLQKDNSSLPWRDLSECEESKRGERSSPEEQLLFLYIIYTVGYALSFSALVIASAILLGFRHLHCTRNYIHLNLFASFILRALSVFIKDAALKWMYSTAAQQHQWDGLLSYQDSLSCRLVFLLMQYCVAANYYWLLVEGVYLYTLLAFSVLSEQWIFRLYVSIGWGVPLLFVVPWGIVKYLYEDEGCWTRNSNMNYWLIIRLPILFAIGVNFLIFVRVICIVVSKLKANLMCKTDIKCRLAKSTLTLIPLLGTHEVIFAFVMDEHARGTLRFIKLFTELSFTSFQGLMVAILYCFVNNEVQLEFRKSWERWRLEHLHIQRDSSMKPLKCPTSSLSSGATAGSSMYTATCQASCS

GIP receptor = target: T1, GIP receptor (Homo sapiens, UniProt P48546); test: HitHunter cAMP assay, GIP receptor; type: cell-based; conditions: read-out: Emax GIP-1R
T1 sequence (P48546 22-466): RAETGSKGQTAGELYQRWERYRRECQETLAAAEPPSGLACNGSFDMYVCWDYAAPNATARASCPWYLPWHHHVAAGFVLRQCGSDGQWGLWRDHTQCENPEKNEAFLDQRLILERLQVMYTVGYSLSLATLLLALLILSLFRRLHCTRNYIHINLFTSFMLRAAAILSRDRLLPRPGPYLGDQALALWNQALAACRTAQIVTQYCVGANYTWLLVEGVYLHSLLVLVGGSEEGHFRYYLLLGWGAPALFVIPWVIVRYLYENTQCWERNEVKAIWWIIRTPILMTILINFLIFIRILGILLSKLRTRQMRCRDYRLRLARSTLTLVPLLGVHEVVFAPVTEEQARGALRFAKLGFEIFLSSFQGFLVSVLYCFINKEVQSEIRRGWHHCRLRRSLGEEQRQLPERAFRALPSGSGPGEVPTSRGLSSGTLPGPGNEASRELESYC

[1] = CHO cells, cAMP, normalized to maximum signal from GLP-1 (high) and DMSO (low)
[2] = CHO cells, cAMP, normalized to maximum signal from GIP (high) and DMSO (low)

| Compound | Emax (GLP-1 receptor; CHO) [%] | Emax (GIP receptor; CHO) [%] | Emax (GLP-1 receptor; [1]) [%] | Emax (GIP receptor; [2]) [%] |
| --- | --- | --- | --- | --- |
| CC[C@H](C)[C@H](NC(=O)[C@H](CC(C)C)NC(=O)[C@H](Cc1c[nH]c2ccccc12)NC(=O)[C@H](CCC(N)=O)NC(=O)[C@@H](NC(=O)[C@H](Cc1ccccc1)NC(=O)[C@H](C)NC(=O)[C@H](CCCCNC(=O)COCCOCCNC(=O)COCCOCCNC(=O)CC[C@H](NC(=O)CCCCCCCCCCCCCCCCCCC(=O)O)C(=O)O)NC(=O)[C@H](CCC(N)=O)NC(=O)[C@H](C)NC(=O)[C@@H](NC(=O)[C@H](CCCCN)NC(=O)[C@H](CC(=O)O)NC(=O)[C@H](CC(C)C)NC(=O)C(C)(C)NC(=O)[C@@H](NC(=O)[C@H](CO)NC(=O)[C@H](Cc1ccc(O)cc1)NC(=O)[C@H](CC(=O)O)NC(=O)[C@H](CO)NC(=O)[C@@H](NC(=O)[C@H](Cc1ccccc1)NC(=O)[C@@H](NC(=O)CNC(=O)[C@H](CCC(=O)O)NC(=O)CCCNC(=O)CNC(=O)Nc1cccc(C)c1)[C@@H](C)O)[C@@H](C)O)[C@@H](C)CC)[C@@H](C)CC)C(C)C)C(=O)N[C@@H](C)C(=O)NCC(=O)NCC(=O)N1CCC[C@H]1C(=O)N[C@@H](CO)C(=O)N[C@@H](CO)C(=O)NCC(=O)N[C@@H](C)C(=O)N1CCC[C@H]1C(=O)N1CCC[C@H]1C(=O)N1CCC[C@H]1C(=O)N[C@@H](CO)C(N)=O [Compound 258] ({X67-CO}-G[GABA]EGTFTSDYSI[Aib]LDKIAQK([AEEA-AEEA-γGlu-C20 diacid])AFVQWLIAGGPSSGAPPPS-NH2; C-terminus assumed) | 100 | 101 | – | – |
| CC[C@H](C)[C@H](NC(=O)[C@H](CC(C)C)NC(=O)[C@H](Cc1c[nH]c2ccccc12)NC(=O)[C@H](CCC(N)=O)NC(=O)[C@@H](NC(=O)[C@H](Cc1ccccc1)NC(=O)[C@H](C)NC(=O)[C@H](CCCCNC(=O)COCCOCCNC(=O)COCCOCCNC(=O)CC[C@H](NC(=O)CCCCCCCCCCCCCCCCCCC(=O)O)C(=O)O)NC(=O)[C@H](CCC(N)=O)NC(=O)[C@H](C)NC(=O)[C@@H](NC(=O)[C@H](CCCCN)NC(=O)[C@H](CC(=O)O)NC(=O)[C@H](CC(C)C)NC(=O)C(C)(C)NC(=O)[C@@H](NC(=O)[C@H](CO)NC(=O)[C@H](Cc1ccc(O)cc1)NC(=O)[C@H](CC(=O)O)NC(=O)[C@H](CO)NC(=O)[C@@H](NC(=O)[C@H](Cc1ccccc1)NC(=O)[C@@H](NC(=O)CNC(=O)[C@H](CCC(=O)O)NC(=O)CCCNC(=O)CNC(=O)Nc1cccc(F)c1)[C@@H](C)O)[C@@H](C)O)[C@@H](C)CC)[C@@H](C)CC)C(C)C)C(=O)N[C@@H](C)C(=O)NCC(=O)NCC(=O)N1CCC[C@H]1C(=O)N[C@@H](CO)C(=O)N[C@@H](CO)C(=O)NCC(=O)N[C@@H](C)C(=O)N1CCC[C@H]1C(=O)N1CCC[C@H]1C(=O)N1CCC[C@H]1C(=O)N[C@@H](CO)C(N)=O [Compound 260] ({X12-CO}-G[GABA]EGTFTSDYSI[Aib]LDKIAQK([AEEA-AEEA-γGlu-C20 diacid])AFVQWLIAGGPSSGAPPPS-NH2; C-terminus assumed) | – | – | 124 | 107 |
| CC[C@H](C)[C@H](NC(=O)[C@H](CC(C)C)NC(=O)[C@H](Cc1c[nH]c2ccccc12)NC(=O)[C@H](CCC(N)=O)NC(=O)[C@@H](NC(=O)[C@H](Cc1ccccc1)NC(=O)[C@H](C)NC(=O)[C@H](CCCCNC(=O)COCCOCCNC(=O)COCCOCCNC(=O)CC[C@H](NC(=O)CCCCCCCCCCCCCCCCCCC(=O)O)C(=O)O)NC(=O)[C@H](CCC(N)=O)NC(=O)[C@H](C)NC(=O)[C@@H](NC(=O)[C@H](CCCNC(=N)N)NC(=O)[C@H](CC(=O)O)NC(=O)[C@H](CC(C)C)NC(=O)C(C)(C)NC(=O)[C@@H](NC(=O)[C@H](CO)NC(=O)[C@H](Cc1ccc(O)cc1)NC(=O)[C@H](CC(=O)O)NC(=O)[C@H](CO)NC(=O)[C@@H](NC(=O)[C@H](Cc1ccccc1)NC(=O)[C@@H](NC(=O)CNC(=O)[C@H](CCC(=O)O)NC(=O)CCNC(=O)C1(c2cccnc2)CCCC1)[C@@H](C)O)[C@@H](C)O)[C@@H](C)CC)[C@@H](C)CC)C(C)C)C(=O)N[C@@H](C)C(=O)NCC(=O)NCC(=O)N1CCC[C@H]1C(=O)N[C@@H](CO)C(=O)N[C@@H](CO)C(=O)NCC(=O)N[C@@H](C)C(=O)N1CCC[C@H]1C(=O)N1CCC[C@H]1C(=O)N1CCC[C@H]1C(=O)N[C@@H](CO)C(N)=O [Compound 243] ({X60-βAla}-EGTFTSDYSI[Aib]LDRIAQK([AEEA-AEEA-γGlu-C20 diacid])AFVQWLIAGGPSSGAPPPS-NH2; C-terminus assumed) | – | – | 109 | 110 |
| CC[C@H](C)[C@H](NC(=O)[C@H](CC(C)C)NC(=O)[C@H](Cc1c[nH]c2ccccc12)NC(=O)[C@H](CCC(N)=O)NC(=O)[C@@H](NC(=O)[C@H](Cc1ccccc1)NC(=O)[C@H](C)NC(=O)[C@H](CCCCNC(=O)COCCOCCNC(=O)COCCOCCNC(=O)CC[C@H](NC(=O)CCCCCCCCCCCCCCCCCCC(=O)O)C(=O)O)NC(=O)[C@H](CCC(N)=O)NC(=O)[C@H](C)NC(=O)[C@@H](NC(=O)[C@H](CCCCN)NC(=O)[C@H](CC(=O)O)NC(=O)[C@H](CC(C)C)NC(=O)C(C)(C)NC(=O)[C@@H](NC(=O)[C@H](CO)NC(=O)[C@H](Cc1ccc(O)cc1)NC(=O)[C@H](CC(=O)O)NC(=O)[C@H](CO)NC(=O)[C@@H](NC(=O)[C@H](Cc1ccccc1)NC(=O)[C@@H](NC(=O)CNC(=O)[C@H](CCC(=O)O)NC(=O)CCCNC(=O)CNC(=O)Nc1cccc(OC)c1)[C@@H](C)O)[C@@H](C)O)[C@@H](C)CC)[C@@H](C)CC)C(C)C)C(=O)N[C@@H](C)C(=O)NCC(=O)NCC(=O)N1CCC[C@H]1C(=O)N[C@@H](CO)C(=O)N[C@@H](CO)C(=O)NCC(=O)N[C@@H](C)C(=O)N1CCC[C@H]1C(=O)N1CCC[C@H]1C(=O)N1CCC[C@H]1C(=O)N[C@@H](CO)C(N)=O [Compound 261] ({NH(3-MeOPh)-CO}-G[GABA]EGTFTSDYSI[Aib]LDKIAQK([AEEA-AEEA-γGlu-C20 diacid])AFVQWLIAGGPSSGAPPPS-NH2; C-terminus assumed) | – | – | 106 | 107 |
| CC[C@H](C)[C@H](NC(=O)[C@H](CC(C)C)NC(=O)[C@H](Cc1c[nH]c2ccccc12)NC(=O)[C@H](CCC(N)=O)NC(=O)[C@@H](NC(=O)[C@H](Cc1ccccc1)NC(=O)[C@H](C)NC(=O)[C@H](CCCCNC(=O)COCCOCCNC(=O)COCCOCCNC(=O)CC[C@H](NC(=O)CCCCCCCCCCCCCCCCCCC(=O)O)C(=O)O)NC(=O)[C@H](CCC(N)=O)NC(=O)[C@H](C)NC(=O)[C@@H](NC(=O)[C@H](CCCCN)NC(=O)[C@H](CC(=O)O)NC(=O)[C@H](CC(C)C)NC(=O)C(C)(C)NC(=O)[C@@H](NC(=O)[C@H](CO)NC(=O)[C@H](Cc1ccc(O)cc1)NC(=O)[C@H](CC(=O)O)NC(=O)[C@H](CO)NC(=O)[C@@H](NC(=O)[C@H](Cc1ccccc1)NC(=O)[C@@H](NC(=O)CNC(=O)[C@H](CCC(=O)O)NC(=O)CCNC(=O)C1(c2cccnc2)CCCC1)[C@@H](C)O)[C@@H](C)O)[C@@H](C)CC)[C@@H](C)CC)C(C)C)C(=O)N[C@@H](C)C(=O)NCC(N)=O [Compound 227] ({X60-βAla}-EGTFTSDYSI[Aib]LDKIAQK([AEEA-AEEA-γGlu-C20 diacid])AFVQWLIAG-NH2; N-terminus and C-terminus assumed) | – | – | 102 | 112 |
| CC[C@H](C)[C@H](NC(=O)[C@H](CC(C)C)NC(=O)[C@H](Cc1c[nH]c2ccccc12)NC(=O)[C@H](CCC(N)=O)NC(=O)[C@@H](NC(=O)[C@H](Cc1ccccc1)NC(=O)[C@H](C)NC(=O)[C@H](CCCCNC(=O)COCCOCCNC(=O)COCCOCCNC(=O)CC[C@H](NC(=O)CCCCCCCCCCCCCCCCCCC(=O)O)C(=O)O)NC(=O)[C@H](CCC(N)=O)NC(=O)[C@H](C)NC(=O)[C@@H](NC(=O)[C@H](CCCCN)NC(=O)[C@H](CC(=O)O)NC(=O)[C@H](CC(C)C)NC(=O)C(C)(C)NC(=O)[C@@H](NC(=O)[C@H](CO)NC(=O)[C@H](Cc1ccc(O)cc1)NC(=O)[C@H](CC(=O)O)NC(=O)[C@H](CO)NC(=O)[C@@H](NC(=O)[C@H](Cc1ccccc1)NC(=O)[C@@H](NC(=O)CNC(=O)[C@H](CCC(=O)O)NC(=O)CCCNC(=O)C(C)(C)n1ccc(C)n1)[C@@H](C)O)[C@@H](C)O)[C@@H](C)CC)[C@@H](C)CC)C(C)C)C(=O)N[C@@H](C)C(=O)NCC(=O)NCC(=O)N1CCC[C@H]1C(=O)N[C@@H](CO)C(=O)N[C@@H](CO)C(=O)NCC(=O)N[C@@H](C)C(=O)N1CCC[C@H]1C(=O)N1CCC[C@H]1C(=O)N1CCC[C@H]1C(=O)N[C@@H](CO)C(N)=O [Compound 252] ({X83-GABA}-EGTFTSDYSI[Aib]LDKIAQK([AEEA-AEEA-γGlu-C20 diacid])AFVQWLIAGGPSSGAPPPS-NH2; C-terminus assumed) | – | – | 90 | 100 |
